Experimental data taken from US20220305013A1, “STABLE COLLOIDAL DRUG AGGREGATES AND METHODS OF MANUFACTURE AND USE THEREOF” (THE GOVERNING COUNCIL OF THE UNIVERSITY OF TORONTO, priority 2019, published 2022).

Tests used:
[1] = Critical aggregation concentration (CAC) by dynamic light scattering in pH-adjusted PBS; type: physicochemical; conditions: for critical aggregation concentration (CAC) as a function of pH: pH 7.4 vs 5.5, DLS; for CAC over a range of pH values: DLS
Experimental: CAC values are calculated by preparing colloidal formulations with different concentrations and measuring the scattering intensity (or fluorescence intensity when appropriate). The data is then fit to Equation S4, which was derived from first principles (Equations S1-S3), using the MATLAB curve fitting toolbox to obtain the critical aggregation concentration (CAC) under the conditions used.
Colloids were formulated as described in Example 1. […] 100 μL of each sample was analyzed by DLS and the CAC's calculated as described in Example 1.
Colloids were formulated as described in Example 1. Briefly, solutions of fulvestrant analogue in DMSO were prepared at various concentrations and then diluted 100-fold with PBS at different […]. 100 μL of each sample was analyzed by DLS and the CAC's calculated as described in Example 1.
Colloids were formulated as described in Example 1. Briefly, solutions of siramesine in DMSO were prepared at various concentrations and then diluted 100-fold with pH-adjusted PBS containing stabilizer (where applicable). 100 μL of each sample was analyzed by DLS and the CACs calculated as described in Example 1.

[2] = Drug release from colloids (centrifugation, drug in supernatant by HPLC-MS-MS); type: physicochemical; conditions: for amount of drug released from co-colloids as a function of pH / drug release over time after acidification to pH 5.5: 12.5 μM lapatinib, 37.5 μM fulvestrant, 0.01 mg/mL PLAC-PEG in PBS
Experimental: Drug release was measured by centrifuging to pellet the colloids, and then by quantifying the drug in the supernatant. Colloid formulations were centrifuged at 16,000×g for 1 h, followed by withdrawal of 100 μL for quantification. Another 100 μL was withdrawn for DLS analysis to confirm that the colloids had completely settled out of solution. Non-centrifuged colloid suspensions were used as controls.
Drug concentration in samples from drug release and membrane permeability assays was quantified by high pressure liquid chromatography coupled with tandem mass spectrometry (HPLC-MS-MS). Protein was precipitated from samples in serum containing media by spiking with 10 μL of formic acid and adding acetonitrile to a final volume of 1 mL. The precipitated samples were then centrifuged at 16,000×g for 5 min to pellet the proteins. The drug-containing supernatant was then diluted in methanol such that the final drug concentration was less than 100 ng mL^−1. During the final dilution, internal standards (nilotinib for lapatinib and norethindrone for fulvestrant) were added to a final concentration of 25 ng/mL each. Standard curves were prepared in a similar way, by diluting 100 mM solutions of drug in DMSO with methanol to final concentrations of 100, 75, 50, 25, 10, 5, 2.5, and 1 ng mL^−1, each with 25 ng mL^−1 of internal standard.

[3] = Membrane permeability assay; type: in vitro ADME; conditions: co-colloids 50 μM lapatinib, 150 μM fulvestrant, 0.04 mg/mL PLAC-PEG, 10% FBS, 6 h, 37° C., acidified vs not
Experimental: Supported artificial lipid membranes were prepared according to the manufacturer instructions (EMD Millipore cat #MATRNPS50). Briefly, a 1% (w/w) solution of egg lecithin in dodecane was prepared by sonicating until the solution was no longer cloudy. A 5 μL aliquot of this phospholipid solution was dropped by pipette into each well of the mesh plate, which wet the membrane and caused it to become translucent. Receiver solution was prepared as 1% (v/v) DMSO and 10% (v/v) FBS in PBS and 340 μL was pipetted into each well of the receiver plate. Lapatinib and fulvestrant solutions ranging from 0 to 5 μM for constructing the standard curve were prepared in identical media and pipetted into separate wells of the receiver plate. Colloids were prepared in PBS containing 10% (v/v) FBS as described above, and 150 μL was pipetted into the mesh plate wells corresponding to the receiver solution in the receiver plate. The mesh plate and receiver plate were gently mated, resulting in the receiver solution wetting the bottom of the phospholipid membrane. […] Finally, the stack was carefully disassembled and a 200 μL sample of receiver and standard curve solutions was withdrawn for drug quantification as described below. […]
Drug concentration in samples from drug release and membrane permeability assays was quantified by high pressure liquid chromatography coupled with tandem mass spectrometry (HPLC-MS-MS). […]

[4] = Acid responsiveness of colloids prepared at different pH (spun down, absorbance); type: physicochemical; conditions: with or without Herceptin as stabilizing agent
Experimental: The colloids were prepared in different pH conditions, spun down, extracted from the supernatant by organic solvent, dried, reconstituted in DMSO and measured for absorbance.

[5] = Zeta potential; type: physicochemical; conditions: 0.1 mM KCl
Experimental: Colloids were prepared as described above, but with a single addition of 0.1 mM KCl solution instead of water and buffer. Zeta potential was immediately assessed using a Malvern Nano-ZS (Malvern Panalytical).

| critical aggregation concentration (CAC) as a function of pH [1] | amount of drug released from co-colloids as a function of pH [2] | transmembrane diffusion [3] | CAC over a range of pH values [1] | acid responsiveness of colloidal drug aggregate [4] | zeta potential (surface charge) [5] | Compound | drug release over time after acidification to pH 5.5 [2] | ionization state of released lapatinib ([2]; calculated by acid-base theory from release data, low pH) |
| --- | --- | --- | --- | --- | --- | --- | --- | --- |
| pH-dependent CACs | increased with increasing acidity | reduced when the colloids were acidified | – | – | – | CS(=O)(=O)CCNCc1ccc(-c2ccc3ncnc(Nc4ccc(OCc5cccc(F)c5)c(Cl)c4)c3c2)o1 [lapatinib] | rapidly reached an equilibrium that was sustained for 24 h | Most lapatinib that is released at low pH is ionized |
| did not dissolve on acidification | – | – | not pH-dependent | did not demonstrate acid responsiveness | – | CNC(=O)c1cc(Oc2ccc(NC(=O)Nc3ccc(Cl)c(C(F)(F)F)c3)cc2)ccn1 [sorafenib] | – | – |
| did not dissolve on acidification | unaffected by pH | – | No change in CAC values | – | negative zeta potential | C[C@]12CC[C@@H]3c4ccc(O)cc4C[C@@H](CCCCCCCCC[S+]([O-])CCCC(F)(F)C(F)(F)F)[C@H]3[C@@H]1CC[C@@H]2O (stereo partly drawn) [fulvestrant] | remained unresponsive to acid | – |
| – | – | – | increase in CAC values | – | – | Fc1ccc(-n2cc(CCCCN3CCC4(CC3)OCc3ccccc34)c3ccccc32)cc1 [siramesine] | – | – |
| pH-dependent CACs | – | – | – | – | – | Clc1ccccc1C(c1ccccc1)(c1ccccc1)n1ccnc1 [clotrimazole] | – | – |
